From patent US20100317565A1, “Novel Peptides and Their Use for the Treatment of Edema” (Rentschler Beteiligungs GmbH, priority 2007, published 2010)
Entries after “also recorded” stand apart in the source; their conditions may differ. Bridge positions count the residues as written; N and C are the ends. Ends that are not written are not given here.

Assays:
[1] = system: polarized Calu-3 cell monolayers; assay: Transepithelial electrical resistance (TEER) assay on polarized Calu-3 cell monolayers; assay type: cell-based, human; details: peptide 250 μM added to apical and basolateral compartment; peak TEER value as percent of Tip peptide (=100%)
rat lung = details: ex vivo and in vivo rat lung model; cited from earlier work
in situ mouse lung = details: cited from earlier work
[2] = system: microvascular endothelial cells; details: cited from earlier work
[3] = system: isolated blood perfused flooded rat lung (E. coli-LPS induced lung edema); assay: Endotoxin induced lung injury in the isolated blood perfused flooded rat lung model; assay type: in vivo, male Spraque-Dawley rats; details: P5 3 mg or P9 10 mg in 1 ml saline i.t.; for Attenuation of LPS-induced total lung weight gain / lung edema production: LPS 3 mg/kg i.t., 18 h, 2-h ex-vivo reperfusion; for Inspiratory resistive work / Static and dynamic lung compliance: LPS-treated lungs; for Inspiratory resistive work / Static and dynamic lung compliance / Effect on lung wet/dry weight ratio: 2-h reperfusion; for Effect on lung wet/dry weight ratio: versus LPS+saline treated lungs
Experimental: In the “Endotoxin induced lung injury in the isolated blood perfused flooded rat lung model”, which is an ex vivo permeability lung edema model, E. coli-LPS is instilled intratracheally and after […] the lung is isolated and placed in an artificial thorax chamber. Then, perfusion occurs with autolo-gous blood. After an one hour stabilisation period, the test compound (in 1 ml saline) is instilled intratra-cheally. Lung parameters are measured over 2 hours. The main read-outs are lung-weight and parameters of lung mechanics and hemodynamics.
In the “Endotoxin induced lung injury in the isolated blood perfused flooded rat lung model”, which is an ex vivo permeability lung edema model, E. coli-LPS is instilled intratracheally and after […] the lung is isolated and placed in an artificial thorax chamber. Then, perfusion occurs with autologous blood. After an one hour stabilisation period, the test compound (in 1 ml saline) is instilled intratracheally. Lung parameters are measured over 2 hours. The primary readout parameters of this […] model are wet weight of lung and heart and P/V curves which are parameters of lung mechanics and hemodynamics.
In this ex vivo lung edema model, E. coli-LPS (3 mg/kg) was instilled intratracheally into male Spraque-Dawley rats. After 18 h the lung was isolated and placed in an artificial thorax chamber. Then, perfusion occurred with autologous blood. After one hour stabilisation period, the test compound (in 1 ml saline) was instilled intratracheally. Lung parameters were measured over 2 h. The main read-outs were lung-weight and parameters of lung mechanics and hemodynamics. • Number of rats: n=7-8 per group • Data are means±SEM • Treatment groups:
? P9 • Perfusion conditions: • imposed pulmonary artery perfusion pressure: 20 mmHg • imposed left atrial pressure: 10 mmHg • resulting pulmonary blood flow: ˜6-9 ml/min • resulting pulmonary microvascular pressure: ˜14.5 mmHg • imposed tidal volume: 7 ml/kg; respiratory rate: 30 bpm • imposed positive end-expiratory airway pressure: 3.0 cmH2O-arterial pH: 7.5 • adjusted hematocrit: 28% (autologous blood)

Substance	Activity in TEER assay (c = 250 μM) (% of Tip activity) [1]	also measured
2 (CGTKPIELGPDEPKAVC; disulfide 1-17 (inferred)) [compound 2]	130.1 % of Tip activity	–
5 (TPEGAETPEGAETPEGAETPEGAETPEGAE; anti-edema peptide) [compound 5]	93.0 % of Tip activity	–
11 (TPEGAEGGGGGTPEGAEGGGGGTPEGAE; anti-edema peptide) [compound 11]	80.0 % of Tip activity	–
20 (GGSPSQRETPEGAEAKPWYGGSPSQRETPEGAEAKPWYGGSPSQRETPEGAEAKPWY; anti-edema peptide) [compound 20]	539.0 % of Tip activity	–
35 (CGQRESPEGAEAKPWYC; anti-edema peptide) [compound 35]	120.9 % of Tip activity	–
36 (CGQRESPEGADAKPWYC; anti-edema peptide) [compound 36]	119.4 % of Tip activity	–
39 (CGQRESPDGAEAKPWYC; anti-edema peptide) [compound 39]	88.8 % of Tip activity	–
40 (CGQRESPDGADAKPWYC; anti-edema peptide) [compound 40]	127.7 % of Tip activity	–
42 (CGQRESPDGGDAKPWYC; anti-edema peptide) [compound 42]	123.6 % of Tip activity	–
43 (CGQRETPEGADAKPWYC; anti-edema peptide) [compound 43]	139.8 % of Tip activity	–
45 (CGQRETPDGADAKPWYC; anti-edema peptide) [compound 45]	172.4 % of Tip activity	–
46 (CGQRETPDGAEAKPWYC; anti-edema peptide) [compound 46]	130.4 % of Tip activity	–
49 (CGTPEGAETPEGAETPEGAEGC; anti-edema peptide) [compound 49]	139.9 % of Tip activity	–
50 (CGGGGGTPEGAEGGGGGTPEGAEGGGGGTPEGAEGC; anti-edema peptide) [compound 50]	156.5 % of Tip activity	–
51 (CGTPEGAETPEGAETPEGAETPEGAETPEGAEGC; anti-edema peptide) [compound 51]	146.6 % of Tip activity	–
52 (SPEGGEGGGGGSPEGGEGGGGGSPEGGE; anti-edema peptide) [compound 52]	87.1 % of Tip activity	–
53 (CGSPEGGEGGGGGSPEGGEGGGGGSPEGGEGC; anti-edema peptide) [compound 53]	131.7 % of Tip activity	–
54 (SPEGGDGGGGGSPEGGDGGGGGSPEGGD; anti-edema peptide) [compound 54]	90.7 % of Tip activity	–
55 (CGSPEGGDGGGGGSPEGGDGGGGGSPEGGDGC; anti-edema peptide) [compound 55]	146.0 % of Tip activity	–
CGQRETPEGAEAKPWYC [SEQ ID NO: 61]	–	Alveolar fluid reabsorption (rat lung): up-regulated; Alveolar fluid reabsorption (in situ mouse lung): up-regulated; Membrane conductance [2]: increased
CGSPEGGDSPEGGDSPEGGDGC (anti-edema peptide) [Peptide P5]	–	Attenuation of LPS-induced total lung weight gain / lung edema production [3]: significantly attenuate; also recorded: attenuating the LPS-induced total lung weight gain; Inspiratory resistive work [3]: especially reduces; Static and dynamic lung compliance [3]: markedly ameliorates; Effect on lung wet/dry weight ratio [3]: statistically significantly different from LPS+saline treated lungs
SPEGGEGGGGGSPEGGEGGGGGSPEGGE (anti-edema peptide) [SEQ ID NO: 52]	–	Attenuation of LPS-induced total lung weight gain / lung edema production ([3]; listed as P9): attenuating the LPS-induced total lung weight gain; Inspiratory resistive work [3]: especially reduces; Static and dynamic lung compliance [3]: markedly ameliorates; Effect on lung wet/dry weight ratio [3]: less pronounced
